The values that follow come from patent US11026946B2, “Pharmacologically active alicyclic-substituted pyrazolo[1,5-a]pyrimidine derivatives” (RICHTER GEDEON NYRT., priority 2017, dated 2021).

The test deals with T1, GABAB receptor (Rattus norvegicus, UniProt O88871+Q9Z0U4).
T1 construct: from tissue; host or cells: rat brain cortex membranes
The test is described as follows: In vitro [35S]GTPγS binding assay in rat cortical membranes. The test is classed as biochemical. The following applies: PAM EC50, [35S]GTPγS binding, read-out: In vitro PAM potency. On the procedure:
In Vitro [^35S]GTPγS Binding Assay in Rat Cortical Membranes
Cortices of freshly harvested rat brains were dissected on an ice-cold surface and homogenized by a glass Dounce homogeniser immediately in ice-cold buffer containing 50 mM Tris, 5 mM MgCl2 and 1 mM EDTA (pH=7.6). Tissue homogenates were centrifuged at 40000 g for 15 min at 4° C. Membrane pellets were resuspended in the same buffer and membranes were incubated for 10 min at 30° C. in a shaking water bath to eliminate endogenous GABA. Homogenates were centrifuged again under the same conditions. The final pellets were resuspended in ice-cold buffer (pH=7.6) containing 50 mM Tris, 100 mM NaCl, 7 mM MgCl2, 1 mM EDTA and 1 mM dithiotreithol (DTT) to yield a concentration of 20 mg tissue weight/ml and frozen at −70° C. until use. The assay was done in a buffer containing 50 mM Tris (pH=7.4), 100 mM NaCl, 7 mM MgCl2, 1 mM EDTA and 1 mM DTT. Each assay tube contained 150 μL GDP (in a final concentration of 50 μM), 100 μL ligand and 125 μL of the membrane suspension (250 μg tissue/tube). The assay tubes were preincubated for 10 min at 30° C. to assure equilibrium. Nonspecific binding was determined in the presence of 10 μM GTPγS: basal binding was determined in the presence of buffer only. After addition of 50 pM [^35S]GTPγS in a volume of 25 μL to the tubes, membranes were incubated for an additional 60 min at 30° C. The assay was terminated by rapid filtration through Packard UniFilter GF/B using a Packard harvester and washed four times with 1 ml ice-cold buffer. After drying the filters at 40° C. for 1 h, 40 μL Microscint (Packard) was added to the filters and radioactivity of the filters was determined by a TopCount NXT (PerkinElmer, Waltham, Mass.: Alper and Nelson, Eur. J. Pharmacol. 1998, 343, 303-312; Rinken et al, Biochem. Pharmacol. 1999, 57, 155-162). Data thus gathered were used to determine PAM EC50 values for each compound as primary in vitro activity end point.
(Binding of GTPγS marks nucleotide exchange on a G protein.)

T1 sequence (O88871 41-940): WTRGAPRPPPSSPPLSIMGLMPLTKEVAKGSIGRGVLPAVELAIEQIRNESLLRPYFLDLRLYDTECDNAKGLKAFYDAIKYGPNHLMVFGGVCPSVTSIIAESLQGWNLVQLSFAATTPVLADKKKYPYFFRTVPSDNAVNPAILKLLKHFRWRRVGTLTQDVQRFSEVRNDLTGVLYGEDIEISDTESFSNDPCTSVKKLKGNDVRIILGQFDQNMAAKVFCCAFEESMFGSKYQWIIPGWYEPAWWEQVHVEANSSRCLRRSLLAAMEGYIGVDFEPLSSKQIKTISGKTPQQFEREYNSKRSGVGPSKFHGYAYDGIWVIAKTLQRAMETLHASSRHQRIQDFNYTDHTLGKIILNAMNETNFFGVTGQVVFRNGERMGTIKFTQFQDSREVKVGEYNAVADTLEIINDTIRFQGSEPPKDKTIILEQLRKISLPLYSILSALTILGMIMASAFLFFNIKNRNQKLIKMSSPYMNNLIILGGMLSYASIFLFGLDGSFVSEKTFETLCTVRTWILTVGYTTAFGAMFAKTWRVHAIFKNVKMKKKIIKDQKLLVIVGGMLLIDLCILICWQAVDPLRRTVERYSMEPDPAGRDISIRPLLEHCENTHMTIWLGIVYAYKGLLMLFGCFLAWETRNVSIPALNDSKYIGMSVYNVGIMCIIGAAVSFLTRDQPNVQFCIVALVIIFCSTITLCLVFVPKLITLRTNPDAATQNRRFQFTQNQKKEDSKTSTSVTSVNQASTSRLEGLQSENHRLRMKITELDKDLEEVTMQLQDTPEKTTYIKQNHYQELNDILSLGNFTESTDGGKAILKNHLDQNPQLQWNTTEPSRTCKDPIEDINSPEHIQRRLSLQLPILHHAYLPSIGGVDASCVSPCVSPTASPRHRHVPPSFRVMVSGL
T1 sequence (Q9Z0U4 17-960 limits assumed): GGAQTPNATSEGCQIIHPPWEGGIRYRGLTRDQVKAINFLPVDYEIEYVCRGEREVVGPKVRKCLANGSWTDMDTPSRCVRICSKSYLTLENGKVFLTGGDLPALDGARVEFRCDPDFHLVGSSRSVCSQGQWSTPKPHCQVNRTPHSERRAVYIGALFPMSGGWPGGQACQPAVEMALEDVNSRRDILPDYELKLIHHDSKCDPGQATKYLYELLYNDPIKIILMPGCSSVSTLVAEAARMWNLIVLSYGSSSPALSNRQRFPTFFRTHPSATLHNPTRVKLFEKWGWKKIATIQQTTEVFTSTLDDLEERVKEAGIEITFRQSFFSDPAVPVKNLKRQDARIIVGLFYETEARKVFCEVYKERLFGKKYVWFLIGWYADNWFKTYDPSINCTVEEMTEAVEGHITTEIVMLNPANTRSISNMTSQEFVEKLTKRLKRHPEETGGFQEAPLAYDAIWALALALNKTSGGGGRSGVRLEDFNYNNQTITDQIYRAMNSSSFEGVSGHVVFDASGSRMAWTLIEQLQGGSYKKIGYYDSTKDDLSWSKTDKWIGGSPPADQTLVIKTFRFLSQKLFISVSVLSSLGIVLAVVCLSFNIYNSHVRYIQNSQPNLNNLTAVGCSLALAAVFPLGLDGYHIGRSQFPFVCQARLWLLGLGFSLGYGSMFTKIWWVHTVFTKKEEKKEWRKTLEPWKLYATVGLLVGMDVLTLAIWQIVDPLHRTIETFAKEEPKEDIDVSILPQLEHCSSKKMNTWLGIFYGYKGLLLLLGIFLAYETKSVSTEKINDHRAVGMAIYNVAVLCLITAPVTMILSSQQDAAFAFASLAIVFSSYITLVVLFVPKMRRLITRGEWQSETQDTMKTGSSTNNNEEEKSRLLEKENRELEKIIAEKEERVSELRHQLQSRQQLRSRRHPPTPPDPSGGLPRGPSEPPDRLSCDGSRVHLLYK

Take `CCCC1(C(=O)O)CCCN(c2c(C(C)C)c(C)nc3cc([C@H]4CC[C@H](C(F)(F)F)CC4)nn23)C1` (single isomer, unassigned) [Example 4]: the EC50 lay in the range of 1 to 10 nM.
Then `CCCC1(C(=O)O)CCCN(c2c(C(C)C)c(C)nc3cc([C@H]4CC[C@H](C(F)(F)F)CC4)nn23)C1` (single isomer, unassigned) [Example 5], with 1 to 10 nM.
As for `Cc1nc2cc([C@H]3CC[C@H](C(F)(F)F)CC3)nn2c(N2CCCC(CF)(C(=O)O)C2)c1C(C)C` (single isomer, unassigned) [Example 6], the EC50 is 1 to 10 nM.
Then `Cc1nc2cc([C@H]3CC[C@H](C(F)(F)F)CC3)nn2c(N2CCCC(CF)(C(=O)O)C2)c1C(C)C` (single isomer, unassigned) [Example 7], with < 1 nM.
As to `COc1c(C)nc2cc([C@H]3CC[C@H](C(F)(F)F)CC3)nn2c1N1CCC[C@](C)(C(=O)O)C1` (single isomer, unassigned) [Example 19], the EC50 lay in the range of 10 to 100 nM.
In the case of `COc1c(C)nc2cc([C@H]3CC[C@H](C(F)(F)F)CC3)nn2c1N1CCC[C@@](C)(C(=O)O)C1` (single isomer, unassigned) [Example 20], the EC50 lay in the range of 100 to 1000 nM.
With `COc1c(C)nc2c(F)c([C@H]3CC[C@H](C(F)(F)F)CC3)nn2c1N1CCC[C@](C)(C(=O)O)C1` (single isomer, unassigned) [Example 23], the EC50 was 1 to 10 nM.
Then `COc1c(C)nc2c(F)c([C@H]3CC[C@H](C(F)(F)F)CC3)nn2c1N1CCC[C@@](C)(C(=O)O)C1` (single isomer, unassigned) [Example 24], with 10 to 100 nM.
For the compound `CC[C@]1(C(=O)O)CCCN(c2c(OC)c(C)nc3c(F)c([C@H]4CC[C@H](C(F)(F)F)CC4)nn23)C1` (single isomer, unassigned) [Example 25], the EC50 fell in the range of 10 to 100 nM.
As to `CC[C@@]1(C(=O)O)CCCN(c2c(OC)c(C)nc3c(F)c([C@H]4CC[C@H](C(F)(F)F)CC4)nn23)C1` (single isomer, unassigned) [Example 26], the EC50 was 10 to 100 nM.
Take `Cc1nc2cc(C3CCC(F)(F)CC3)nn2c(N2CCC[C@@](C)(C(=O)O)C2)c1C(C)C` (single isomer, unassigned) [Example 30]: the EC50 is 1 to 10 nM.
On to `CC[C@@]1(C(=O)O)CCCN(c2c(C(C)C)c(C)nc3cc(C4CCC(F)(F)CC4)nn23)C1` (single isomer, unassigned) [Example 32], for which the EC50 fell in the range of 10 to 100 nM.
With `Cc1nc2cc([C@H]3CC[C@H](C(F)(F)F)CC3)nn2c(N2CCC[C@H](C(=O)O)C2)c1C(C)C` [Example 1, (3S)-1-[5-Methyl-6-(propan-2-yl)-2-[trans-4-(trifluoromethyl)cyclohexyl]pyrazolo[1,5-a]pyrimidin-7-yl]piperidine-3-carboxylic Acid], the EC50 is 1 to 10 nM.
`Cc1nc2cc([C@H]3CC[C@H](C(F)(F)F)CC3)nn2c(N2CCC[C@@H](C(=O)O)C2)c1C(C)C` [Example 10]: the EC50 lay in the range of 1 to 10 nM.
As to `Cc1nc2cc([C@H]3CC[C@H](C(F)(F)F)CC3)nn2c(N2CCC[C@@](C(=O)O)(C(C)C)C2)c1C(C)C` [Example 14], the EC50 was in the range of 1 to 10 nM.
As for `CC[C@]1(C(=O)O)CCCN(c2c(OC)c(C)nc3cc([C@H]4CC[C@H](C(F)(F)F)CC4)nn23)C1` [Example 21], the EC50 fell in the range of 10 to 100 nM.
Consider `CC[C@@]1(C(=O)O)CCCN(c2c(OC)c(C)nc3cc([C@H]4CC[C@H](C(F)(F)F)CC4)nn23)C1` [Example 22], for which the EC50 lay in the range of 100 to 1000 nM.
With `CCc1c(C)nc2cc([C@H]3CC[C@H](C(F)(F)F)CC3)nn2c1N1CCC[C@@](C)(C(=O)O)C1` [Example 27], the EC50 was 1 to 10 nM.
Turning to `CCc1c(C)nc2cc([C@H]3CC[C@H](C(F)(F)F)CC3)nn2c1N1CCC[C@@](CC)(C(=O)O)C1` [Example 28], the EC50 is 10 to 100 nM.
On to `Cc1nc2cc(C3CCC(F)(F)CC3)nn2c(N2CCC[C@](C)(C(=O)O)C2)c1C(C)C` [Example 29], for which the EC50 lay within 10 to 100 nM.
Regarding `CC[C@]1(C(=O)O)CCCN(c2c(C(C)C)c(C)nc3cc(C4CCC(F)(F)CC4)nn23)C1` [Example 31], the EC50 is 10 to 100 nM.
